Test system: A549 cells
Assay: Inhibition of cell growth in tumor cells, MTT assay
Assay type: cell-based
Settings: Homo sapiens, A549, 72 h, read-out: A549 cell IC50
Method: Inhibition of cell growth by compounds was measured using MTT assay (Mosmann, T., Journal of Immunological Methods, 1983, 65, 55-63). Tumor cell lines were purchased from ATCC (American Type Culture Collection, Manassas, Va.). All cell lines were maintained in RPMI 1640 (Hyclone) supplemented with 10% fetal bovine serum (FBS, Hyclone), glutamine (2 mM, Hyclone), and antibiotics (penicillin 100 U/mL and streptomycin 50 μg/mL) at 37° C. in a humidified atmosphere of 5% CO2 in air. Taxol (positive control, Sigma) and compounds were dissolved in DMSO (Sigma), and the final concentration of DMSO in the medium was 1%. Tumor cells were plated in 96-well plates at densities from 4000 cells/well of a 96-well plate and allowed to adhere/grow for 24 h. They were then treated with various concentrations of drug for 72 h. 3-(4,5-Dimethylthiazol-2-yl)-2,5-diphenyltetrazolium bromide (MTT, Sigma) was used to determine the number of viable cells at the time of compound addition and the number of cells remaining after 72 h compound exposure. The number of cells remaining after 72 h was compared to the number of viable cells at the time of compound addition by measuring the absorbance at 570 nm, allowing for the calculation of growth inhibition.
All concentrations of compounds were tested in triplicate and controls were averaged over 4 wells. IC50 was calculated by plotting the concentration of compound vs the percentage of inhibition in treated wells using GraphPad Prism 5. […]

Structure (SMILES) | IC50
COCCN1CCN(C(=O)Oc2ccc(C[C@H]3C(=O)OC[C@@H]3Cc3ccc(OC)c(OC)c3)cc2OC)CC1 [4-(((3R,4R)-4-(3,4-dimethoxybenzyl)-2-oxotetrahydrofuran-3-yl)methyl)-2-methoxyphenyl 4-(2-methoxyethyl)piperazine-1-carboxylate] | 788 nM
COc1ccc(C[C@H]2COC(=O)[C@@H]2Cc2ccc(OC(=O)N3CCN(C)CC3)c(OC)c2)cc1OC [4-(((3R,4R)-4-(3,4-dimethoxybenzyl)-2-oxotetrahydrofuran-3-yl)methyl)-2-methoxyphenyl 4-methylpiperazine-1-carboxylate] | 850 nM
COc1ccc(C[C@H]2COC(=O)[C@@H]2Cc2ccc(OC(=O)N(C)CCN(C)C)c(OC)c2)cc1OC [4-(((3R,4R)-4-(3,4-dimethoxybenzyl)-2-oxotetrahydrofuran-3-yl)methyl)-2-methoxyphenyl (2-(dimethylamino)ethyl)(methyl)carbamate] | 1020 nM
COc1ccc(C[C@H]2COC(=O)[C@@H]2Cc2ccc(OC(=O)N(C)CCO)c(OC)c2)cc1OC [4-(((3R,4R)-4-(3,4-dimethoxybenzyl)-2-oxotetrahydrofuran-3-yl)methyl)-2-methoxyphenyl (2-hydroxyethyl)(methyl)carbamate] | 1070 nM
COCCN(C)C(=O)Oc1ccc(C[C@H]2C(=O)OC[C@@H]2Cc2ccc(OC)c(OC)c2)cc1OC [4-(((3R,4R)-4-(3,4-dimethoxybenzyl)-2-oxotetrahydrofuran-3-yl)methyl)-2-methoxyphenyl (2-methoxyethyl)(methyl)carbamate] | 687 nM
COc1ccc(C[C@H]2COC(=O)[C@@H]2Cc2ccc(OC(=O)N(C)C)c(OC)c2)cc1OC [4-(((3R,4R)-4-(3,4-dimethoxybenzyl)-2-oxotetrahydrofuran-3-yl)methyl)-2-methoxyphenyl dimethylcarbamate] | 521 nM
COc1ccc(C[C@H]2COC(=O)[C@@H]2Cc2ccc(OC(=O)N3CCNCC3)c(OC)c2)cc1OC [4-(((3R,4R)-4-(3,4-dimethoxybenzyl)-2-oxotetrahydrofuran-3-yl)methyl)-2-methoxyphenyl piperazine-1-carboxylate] | 799 nM
COc1ccc(C[C@H]2COC(=O)[C@@H]2Cc2ccc(OC(=O)N3CC[C@H](N)C3)c(OC)c2)cc1OC [(S)-4-(((3R,4R)-4-(3,4-dimethoxybenzyl)-2-oxotetrahydrofuran-3-yl)methyl)-2-methoxyphenyl 3-aminopyrrolidine-1-carboxylate] | 923 nM

Same assay, conditions: Homo sapiens; MTT assay, 72 h compound exposure, A549 cells; read-out: A549 cell IC50

Structure (SMILES) | IC50
COc1ccc(C[C@H]2COC(=O)[C@@H]2Cc2ccc(OC(=O)N3CCOCC3)c(OC)c2)cc1OC [4-(((3R,4R)-4-(3,4-dimethoxybenzyl)-2-oxotetrahydrofuran-3-yl)methyl)-2-methoxyphenyl morpholine-4-carboxylate] | 767 nM
COc1ccc(C[C@H]2COC(=O)[C@@H]2Cc2ccc(OC(=O)N3CCCCC3)c(OC)c2)cc1OC [4-(((3R,4R)-4-(3,4-dimethoxybenzyl)-2-oxotetrahydrofuran-3-yl)methyl)-2-methoxyphenyl piperidine-1-carboxylate] | 659 nM
COc1ccc(C[C@H]2COC(=O)[C@@H]2Cc2ccc(OC(=O)N3CCCC3)c(OC)c2)cc1OC [4-(((3R,4R)-4-(3,4-dimethoxybenzyl)-2-oxotetrahydrofuran-3-yl)methyl)-2-methoxyphenyl pyrrolidine-1-carboxylate] | 785 nM
COc1ccc(C[C@H]2COC(=O)[C@@H]2Cc2ccc(OC(=O)N3CC[C@@H](NC(=O)OC(C)(C)C)C3)c(OC)c2)cc1OC [(R)-4-(((3R,4R)-4-(3,4-dimethoxybenzyl)-2-oxotetrahydrofuran-3-yl)methyl)-2-methoxyphenyl 3-((tert-butoxycarbonyl)amino) pyrrolidine-1-carboxylate] | 585 nM
COc1ccc(C[C@H]2COC(=O)[C@@H]2Cc2ccc(OC(=O)N3CC[C@@H](O)C3)c(OC)c2)cc1OC [(R)-4-(((3R,4R)-4-(3,4-dimethoxybenzyl)-2-oxotetrahydrofuran-3-yl)methyl)-2-methoxyphenyl 3-hydroxypyrrolidine-1-carboxylate] | 587 nM
COc1ccc(C[C@H]2COC(=O)[C@@H]2Cc2ccc(OC(=O)N3CC[C@H](O)C3)c(OC)c2)cc1OC [(S)-4-(((3R,4R)-4-(3,4-dimethoxybenzyl)-2-oxotetrahydrofuran-3-yl)methyl)-2-methoxyphenyl 3-hydroxypyrrolidine-1-carboxylate] | 841 nM

Reference: patent US8614211B2, “Certain chemical entities, compositions, and methods” (NeuPharma, Inc., priority 2011, dated 2013)
